In patent US20130149311A1, “GFI1B MODULATION AND USES THEREOF” (INSTITUT DE RECHERCHES CLINIQUES DE MONTREAL, priority 2010, published 2013):

Tested on: HSCs
Test: N-Acetyl-Cystein (NAC) feeding of plpC-treated Gfi1b^fl/fl and MxCre tg Gfi1b^fl/fl mice; hematological compartments and HSC numbers by flow cytometry
Format: in vivo
Details: for Number of HSCs in BM NAC treatment / % Lin^− cells in BM NAC treatment / Number of BM cells × 10^6 NAC treatment / Number of HSCs in Spleen NAC treatment / Number of HSCs per 1 ml blood NAC treatment / Number of Lin^− cells × 10^6 NAC treatment / Number of splenocytes × 10^6 NAC treatment: plpC-treated, fed daily with N-Acetyl-Cystein, mean ± SEM
Procedure: Treatment. MxCre tg Gfi1^fl/fl or Gfi1b^fl/fl mice were injected with polyinosinic-polycytidylic acid (plpC) (Sigma-Aldrich) at a dose of 500 μg per injection every other day for a total of 5 injections. As control, wt or Gfi1b^fl/fl mice not carrying the MxCre tg were injected with plpC. With regard to N-Acetyl-Cystein (Sigma-Aldrich, Mississagua) treatment, mice were fed every day with 500 μl N-Acety-Cystein (50 mg/ml)
Flow cytometry analysis, sorting of HSC and progenitors. HSCs and progenitors were analyzed with a LSR™, or Cyan flow cytometers and HSC were sorted with a MoFlo™ from adult mouse bone marrow as described previously (Kiel et al., 2005, supra; Adolfsson J et al., Cell 2005; 121:295-306). The BrdU experiments and the determination of cell cycle phases by Hoechst staining was done according to described procedures (Wilson et al., 2005, supra). Reactive oxygen species (ROS) were analyzed by staining HSCs with 5-(and-6)-carboxy-2′,7′-dichlorodihydrofluorescein diacetate (carboxy-H2DCFDA) (Invitrogen, Burlington, Canada) for 30 min at 37° C. After staining, cells were analyzed by flow cytometry for level of ROS in HSCs.
To verify whether loss of Gfi1b activates HSCs and that this activation leads to increased level of ROS which in turn could lead to an expansion of HSCs, mice were fed with N-Acetyl-Cystein (NAC), which counteracts the effects of ROS (Ito K, et al. Nat Med. April 2006; 12(4):446-451).

[1] = Gfi1b^fl/fl Mx-Cre tg (Gfi1b deficient) mice
[2] = Gfi1b^fl/fl Mx-Cre tg vs Gfi1b^fl/fl, both NAC treated

CC(=O)N[C@@H](CS)C(=O)O [NAC, N-Acetyl-Cystein] was tested, and the “Number of HSCs in BM NAC treatment” value (Gfi1b^fl/fl (wt) mice, HSCs = Lin^−, Sca-1^+, Kit^+, CD150^+, CD48^−) was 1700 ± 700,, the “% Lin^− cells in BM NAC treatment” value (Gfi1b^fl/fl (wt) mice) was 1.5 ± 0.1, % and the “Number of BM cells × 10^6 NAC treatment” value (Gfi1b^fl/fl (wt) mice) was 45 ± 4, × 10^6. For the same compound, the “Number of HSCs in Spleen NAC treatment” value (Gfi1b^fl/fl (wt) mice) was 197 ± 77,, the “Number of HSCs per 1 ml blood NAC treatment” value (Gfi1b^fl/fl (wt) mice) was 11 ± 1, per 1 ml blood and the “Number of Lin^− cells × 10^6 NAC treatment” value (Gfi1b^fl/fl (wt) mice) was 0.8 ± 0.1, × 10^6. The “Number of splenocytes × 10^6 NAC treatment” value (Gfi1b^fl/fl (wt) mice) was 86 ± 22, × 10^6, the “% Lin^− cells in BM NAC treatment” value [1] was 2.45 ± 0.5, % and the “Number of BM cells × 10^6 NAC treatment” value [1] was 44 ± 2, × 10^6. The “Number of HSCs in BM NAC treatment” value [1] was 5700 ± 1100,, the “Number of HSCs in Spleen NAC treatment” value [1] was 6000 ± 2000, and the “Number of HSCs per 1 ml blood NAC treatment” value [1] was 307 ± 100, per 1 ml blood. For the same compound, the “Number of Lin^− cells × 10^6 NAC treatment” value [1] was 1.1 ± 0.4, × 10^6, the “Number of splenocytes × 10^6 NAC treatment” value [1] was 104 ± 22, × 10^6 and the “% Lin^− cells in BM NAC treatment, fold change” value [2] was 1.6. For the same compound, the “Number of BM cells NAC treatment, fold change” value [2] was 1, the “Number of HSCs in BM NAC treatment, fold change” value [2] was 3 and the “Number of HSCs in Spleen NAC treatment, fold change” value [2] was 30. For the same compound, the “Number of HSCs per 1 ml blood NAC treatment, fold change” value [2] was 28, the “Number of Lin^− cells NAC treatment, fold change” value [2] was 1.4 and the “Number of splenocytes NAC treatment, fold change” value [2] was 1.2. The “Effect on expansion of Gfi1b^ko/ko HSCs (frequencies and absolute numbers)” value (bone marrow, spleen and peripheral blood, NAC-treated vs untreated Gfi1b-deficient mice) was “significantly limited the expansion”.
